Reference: patent publication US12357656B2 (AMORPHICAL LTD, priority 2019, dated 2025)

Experiments:
[1] = Titration of DPBS and DMEM/F12 + 10% FBS with different carbonate sources (pH effect); type: physicochemical; conditions: for Amount in ml that was needed to reach pH 8: 73.5 mM carbonate suspension or solution
Excerpt: Two commercial media, Dulbecco's phosphate-buffered saline (DPBS) and Gibco Dulbecco's Modified Eagle Medium: Nutrient Mixture F-12 (DMEM/F12), with 10% Fetal Bovine Serum (FBS) were used to evaluate the pH effect of different sources of calcium carbonate. DPBS is Dulbecco's Phosphate Buffered Saline, generally serves as an isotonic saline solution or buffer for washing cells and tissues and intends to provide a buffer system for maintaining cell culture media in the physiological range of 7.2-7.6.
DMEM/F12 is a widely used basal medium for supporting the growth of many different mammalian cells. DMEM/F12 medium+10% FBS was used to maximally mimic the environment of the body fluids.
Three sources of calcium carbonate were used ACC, Sodium bicarbonate (SBC) and Crystalline Calcium Carbonate (CCC).
The final composition comprised 73.53 mM of CaCO3 in the water suspension.
The addition was done until a pH plateau was accomplished or the level of the solution reached the end of the capacity of the used container (˜130 ml).

athletes = conditions: about 20-35 g/day; cited from earlier work
[2] = human performance; Requena 2005; cited from earlier work
[3] = oral administration of 300 mg/kg; Zajac 2009; cited from earlier work
[4] = chronic ingestion, 300 to 500 mg/kg; Lopes-Silva; cited from earlier work
[5] = supplementation; Sounders 2016; cited from earlier work

O=C([O-])[O-].[Ca+2] [CCC, Crystalline Calcium Carbonate]
Final pH ([1]; added to DMEM/F12 + 10% FBS): 7.90
Amount in ml that was needed to reach pH 8 ([1]; added to DMEM/F12 + 10% FBS): 80 ml
Final pH ([1]; added to DPBS): 8
Amount in ml that was needed to reach pH 8 ([1]; added to DPBS): 65 ml

O=C([O-])O.[Na+] [SBC, Sodium bicarbonate]
reported adverse effects (athletes): stomach aches and discomfort, nausea, and vomiting
doses for which a significant effect was shown [2]: above 300 mg/kg
capability to reach higher pH levels ([1]; SBC compared with CCC): not significantly different
Final pH ([1]; added to DMEM/F12 + 10% FBS): 8.3
Amount in ml that was needed to reach pH 8 ([1]; added to DMEM/F12 + 10% FBS): 77 ml
Final pH ([1]; added to DPBS): 8.30
Amount in ml that was needed to reach pH 8 ([1]; added to DPBS): 76.4 ml
training intensity and swimming performance [3]: can increase training intensity and swimming performance
Wingate test peak or mean power [4]: chronic ingestion of NaHCO3 did

NCCC(=O)O [β-alanine]
effect on exercise [5]: significant overall ergogenic effect
